{
  "source": "paper PMC10419174",
  "about": "“WR1065 conjugated to thiol-PEG polymers as novel anticancer prodrugs: broad spectrum efficacy, synergism, and drug resistance reversal” (Frontiers in Oncology, 2023)",
  "key": {"Prostate PC3 cells": {"test_system": "Prostate PC3 cells", "experiment": "cells", "method": "(§1) The percentage of growth inhibition was calculated as follows: […]"}, "human cancer cell lines": {"test_system": "human cancer cell lines", "experiment": "cells", "method": "as §1"}, "NCI-H460 NSCLC cells": {"test_system": "NCI-H460 NSCLC cells", "settings": "for Fold increase in efficacy: drug alone ÷ drug in 4SP65-DDP combination"}, "[1]": {"test_system": "Mammary gland MDA-MB-231 cells", "experiment": "CyQUANT-NF proliferation assay, 48-h drug treatment", "assay_type": "cell-based", "method": "Since the BRG prodrugs are composed of WR1065 as one of the major constituents, assays were conducted to determine if factors reported to modulate the activity of amino acid and polyamine plasma membrane transport systems impacted the efficacy of 4SP65 or 1LP65 in selected cancer cell lines. HL60 cells were exposed to 4SP65 with up to 0.5 mM NaCl, MBA-MD-231 cells were tested in the presence and absence of medium supplemented with estradiol plus insulin (in the BulletKit™ for growth supplements for NHMECs), HCC38 cells were exposed to 4SP65 with and without 10 µM insulin added to the growth medium, and multiple cells lines were pretreated for 24 h with 1 mM DFMO prior to starting exposures to 4SP65.\nas §1"}, "[2]": {"settings": "4SP65: average across 15 cell lines, 48 h"}, "[3]": {"settings": "15 cell lines for 4SP65, 11 for 1LP65"}, "[4]": {"settings": "average of A549, H460, PPMMill, LNCaP"}, "[5]": {"settings": "average of HCC38, MDA-MB-231, H1975, HMESO1, PANC1, DU145, PC3"}, "[6]": {"settings": "averages of dose-response metrics across the panel"}, "[7]": {"settings": "averages over 11 cell lines, minimal fold differences"}, "[8]": {"settings": "48-h treatment, amifostine ND = not definable up to 500 µM"}, "[9]": {"settings": "drug alone, 48 h, 4SP65/cisplatin study"}, "[10]": {"settings": "drug alone, 48 h, 4SP65/cisplatin study, ND = not definable, highest concentration in parentheses"}},
  "note": "Values joined by “and” are separate entries in the source; they are usually repeats but may differ in a detail not shown here. Equal entries are not always repeated. Where two headings read alike, the source gives them in different places. Marks after values point to notes of the source that are not given here.",
  "data": [
    {"substance": "4-star-PEG-S-S-WR1065 [4SP65]", "values": [
      {"measurement": "Dose reduction value AMF ÷ 4SP65", "setting": "Prostate PC3 cells; at IC50", "result": 52, "unit": "fold"},
      {"measurement": "Dose reduction value 1LP65 ÷ 4SP65", "setting": "Prostate PC3 cells; at LC50", "result": 13, "unit": "fold"},
      {"measurement": "Dose reduction value 1LP65 ÷ 4SP65", "setting": "Prostate PC3 cells; at LC99", "result": 15, "unit": "fold"},
      {"measurement": "Dose reduction value 1LP65 ÷ 4SP65", "setting": "Prostate PC3 cells; at TGI", "result": 19, "unit": "fold"},
      {"measurement": "Dose reduction value AMF ÷ 4SP65", "setting": "Prostate PC3 cells; at TGI", "result": 143, "unit": "fold"},
      {"measurement": "fold more potent than 1LP65, average", "setting": "human cancer cell lines", "result": 10.4, "unit": "fold"},
      {"measurement": "fold increases in cytostatic and cytolytic activities, range", "setting": "human cancer cell lines; 4SP65-cisplatin combined, H460 and SKOV3 cells", "result": "1.3- to 36 fold"},
      {"measurement": "gains of effect, range (not significant)", "setting": "human cancer cell lines; 4SP65-cisplatin combined, HMESO1 and PPMMill cells", "result": "1.1- to 1.3 fold"},
      {"measurement": "LC99, All cell lines", "setting": "human cancer cell lines; [2]", "result": "11.2 ± 1.2", "unit": "µM"},
      {"measurement": "TGI, All cell lines", "setting": "human cancer cell lines; [2]", "result": "6.8 ± 1.1", "unit": "µM"},
      {"measurement": "LC99, range for individual cell lines", "setting": "human cancer cell lines; [3]", "result": "3.0 to 21.1", "unit": "µM"},
      {"measurement": "TGI, range for individual cell lines", "setting": "human cancer cell lines; [3]", "result": "2.0 to 16.3", "unit": "µM"},
      {"measurement": "fold more effective as a cytostatic agent than PRIMA-1 or APR-246", "setting": "human cancer cell lines; TP53 mutant cells", "result": "2.3- to 30 fold"},
      {"measurement": "fold more effective as a cytostatic agent than PRIMA-1 or APR-246", "setting": "human cancer cell lines; TP53 wild-type cells", "result": "4.3- to 21 fold"},
      {"measurement": "LC99, TP53 Wild-Type", "setting": "human cancer cell lines; [4]", "result": "14.4 ± 1.6", "unit": "µM"},
      {"measurement": "TGI, TP53 Wild-Type", "setting": "human cancer cell lines; [4]", "result": "9.5 ± 2.0", "unit": "µM"},
      {"measurement": "LC99, TP53 Mutant", "setting": "human cancer cell lines; [5]", "result": "9.1 ± 0.9", "unit": "µM"},
      {"measurement": "TGI, TP53 Mutant", "setting": "human cancer cell lines; [5]", "result": "4.4 ± 0.9", "unit": "µM"},
      {"measurement": "fold more potent than amifostine as a cytostatic agent, average", "setting": "human cancer cell lines; [6]", "result": 55, "unit": "fold"},
      {"measurement": "fold more potent than amifostine as a cytostatic agent, range", "setting": "human cancer cell lines; [6]", "result": "45- to 63 fold"},
      {"measurement": "Fold difference in drug potency 4SP65 vs 1LP65: GI50", "setting": "human cancer cell lines; averages over 11 cell lines", "result": 10.2},
      {"measurement": "Fold difference in drug potency 4SP65 vs 1LP65: IC50", "setting": "human cancer cell lines; averages over 11 cell lines", "result": 9.7},
      {"measurement": "Fold difference in drug potency 4SP65 vs 1LP65: LC50", "setting": "human cancer cell lines; averages over 11 cell lines", "result": 10.4},
      {"measurement": "Fold difference in drug potency 4SP65 vs 1LP65: LC99", "setting": "human cancer cell lines; averages over 11 cell lines", "result": 11.3},
      {"measurement": "Fold difference in drug potency 4SP65 vs 1LP65: TGI", "setting": "human cancer cell lines; averages over 11 cell lines", "result": 10.2},
      {"measurement": "Fold difference in drug potency vs amifostine: GI50", "setting": "human cancer cell lines; [7]", "result": "> 45"},
      {"measurement": "Fold difference in drug potency vs amifostine: IC50", "setting": "human cancer cell lines; [7]", "result": "> 57"},
      {"measurement": "Fold difference in drug potency vs amifostine: TGI", "setting": "human cancer cell lines; [7]", "result": "> 63"},
      {"measurement": "fold more potent than 1LP65, range", "setting": "human cancer cell lines; depending on the dose-response metric", "result": "9.7- to 11.3 fold"},
      {"measurement": "fold greater effect than amifostine", "setting": "human cancer cell lines; four cell lines where amifostine GI50 <100 µM", "result": 38, "unit": "fold"},
      {"measurement": "GI50", "setting": "human cancer cell lines; read-out: GI50, All cell lines, 4SP65: average across 15 cell lines, 48 h", "result": "4.1 ± 0.8", "unit": "µM"},
      {"measurement": "GI50", "setting": "human cancer cell lines; read-out: GI50, TP53 Mutant, average of HCC38, MDA-MB-231, H1975, HMESO1, PANC1, DU145, PC3", "result": "2.6 ± 0.8", "unit": "µM"},
      {"measurement": "GI50", "setting": "human cancer cell lines; read-out: GI50, TP53 Wild-Type, average of A549, H460, PPMMill, LNCaP", "result": "5.8 ± 1.4", "unit": "µM"},
      {"measurement": "GI50", "setting": "human cancer cell lines; read-out: GI50, range for individual cell lines, 15 cell lines for 4SP65, 11 for 1LP65", "result": "0.7 to 10.6", "unit": "µM"},
      {"measurement": "GI50", "setting": "human cancer cell lines; read-out: GI50 range, seven cell lines compared with NCI data (Table 5)", "result": "0.7 to 9.4", "unit": "µM"},
      {"measurement": "GI50", "setting": "human cancer cell lines; read-out: average GI50, four cell lines where amifostine GI50 <100 µM", "result": 1.7, "unit": "µM"},
      {"measurement": "fold potency greater than predicted by four versus one WR1065/molecule", "setting": "human cancer cell lines; versus 1LP65", "result": "~ 2.5 fold"},
      {"measurement": "GI50", "setting": "NCI-H460 NSCLC cells; [8]", "result": "9.4 ± 1.5", "unit": "µM"},
      {"measurement": "IC50", "setting": "NCI-H460 NSCLC cells; [8]", "result": "10.7 ± 1.3", "unit": "µM"},
      {"measurement": "LC99", "setting": "NCI-H460 NSCLC cells; [8]", "result": "17.7 ± 0.8", "unit": "µM"},
      {"measurement": "TGI", "setting": "NCI-H460 NSCLC cells; [8]", "result": "14.1 ± 1.5 µM and 14.1 µM"},
      {"measurement": "Dose reduction value 1LP65 ÷ 4SP65", "setting": "NCI-H460 NSCLC cells; at GI50", "result": 8.3, "unit": "fold"},
      {"measurement": "Dose reduction value 1LP65 ÷ 4SP65", "setting": "NCI-H460 NSCLC cells; at IC50", "result": 8.4, "unit": "fold"},
      {"measurement": "Dose reduction value 1LP65 ÷ 4SP65", "setting": "NCI-H460 NSCLC cells; at LC50", "result": 9.5, "unit": "fold"},
      {"measurement": "Dose reduction value 1LP65 ÷ 4SP65", "setting": "NCI-H460 NSCLC cells; at LC99", "result": 10, "unit": "fold"},
      {"measurement": "Dose reduction value 1LP65 ÷ 4SP65", "setting": "NCI-H460 NSCLC cells; at TGI", "result": 8.8, "unit": "fold"},
      {"measurement": "Fold increase in efficacy", "setting": "NCI-H460 NSCLC cells; at GI50", "result": 36, "unit": "fold"},
      {"measurement": "Fold increase in efficacy", "setting": "NCI-H460 NSCLC cells; at IC50", "result": "20** fold"},
      {"measurement": "Fold increase in efficacy", "setting": "NCI-H460 NSCLC cells; at LC50, GoE = gain of effect", "result": "5.3^c fold"},
      {"measurement": "Fold increase in efficacy", "setting": "NCI-H460 NSCLC cells; at LC99, GoE = gain of effect", "result": "4.3^c fold"},
      {"measurement": "Fold increase in efficacy", "setting": "NCI-H460 NSCLC cells; at TGI, GoE = gain of effect", "result": "7.4^c fold"},
      {"measurement": "GI50", "setting": "NCI-H460 NSCLC cells; [9]", "result": "12.3 ± 1.1", "unit": "µM"},
      {"measurement": "IC50", "setting": "NCI-H460 NSCLC cells; [9]", "result": "13.3 ± 1", "unit": "µM"},
      {"measurement": "LC99", "setting": "NCI-H460 NSCLC cells; [10]", "result": "18.2 ± 0.4", "unit": "µM"},
      {"measurement": "TGI", "setting": "NCI-H460 NSCLC cells; [10]", "result": "16.9 ± 0.6", "unit": "µM"},
      {"measurement": "CC50", "setting": "[1]", "result": "9.2 ± 1.2", "unit": "µM"},
      {"measurement": "IC50", "setting": "[1]; [8]", "result": "4.7 ± 0.9", "unit": "µM"},
      {"measurement": "LC99", "setting": "[1]; [8]", "result": "11.0 ± 1.8", "unit": "µM"},
      {"measurement": "TGI", "setting": "[1]; [8]", "result": "6.6 ± 1.0 µM and 6.6 µM"},
      {"measurement": "selectivity index", "setting": "[1]; IC50 in NHMECs ÷ IC50 in MDA-MB-231, average", "result": "> 26"},
      {"measurement": "Dose reduction value 1LP65 ÷ 4SP65", "setting": "[1]; at GI50", "result": 26, "unit": "fold"},
      {"measurement": "Dose reduction value 1LP65 ÷ 4SP65", "setting": "[1]; at IC50", "result": 15, "unit": "fold"},
      {"measurement": "Dose reduction value 1LP65 ÷ 4SP65", "setting": "[1]; at LC50", "result": 15, "unit": "fold"},
      {"measurement": "Dose reduction value 1LP65 ÷ 4SP65", "setting": "[1]; at LC99", "result": 14, "unit": "fold"},
      {"measurement": "Dose reduction value 1LP65 ÷ 4SP65", "setting": "[1]; at TGI", "result": 21, "unit": "fold"},
      {"measurement": "fold increase in drug efficacy at the TGI level with hormones", "setting": "[1]; insulin plus estradiol", "result": "~4", "unit": "fold"},
      {"measurement": "TGI", "setting": "[1]; with insulin plus estradiol, 48 h", "result": 1.2, "unit": "µM"},
      {"measurement": "TGI", "setting": "[1]; without hormones, 48 h (pilot experiment)", "result": 4.6, "unit": "µM"}
    ]}
  ]
}
